Measured values as given in US6534632B2, “Sialidase localized in plasma membrane DNA coding for the same” (priority 1997, dated 2003).
Like-named read-outs stand apart in the source and are kept apart here.

Tests used:
Type in all cases: biochemical
[1] = biological target: T1, bovine membrane-bound sialidase (Bos taurus, UniProt O97859); experiment: Sialidase activity of purified bovine membrane-bound sialidase for various substrates (substrate specificity); conditions: for Hydrolysis activity (%): relative activity, activity for GD3-ganglioside defined as 100, purified enzyme
T1 construct: the sialidase activity was purified by more than 100,000 times from the bovine brain particulate fraction; from tissue; host or cells: bovine brain (particulate/membrane fraction, detergent-solubilized, 10-step chromatographic purification)
T1 sequence (O97859 1-428): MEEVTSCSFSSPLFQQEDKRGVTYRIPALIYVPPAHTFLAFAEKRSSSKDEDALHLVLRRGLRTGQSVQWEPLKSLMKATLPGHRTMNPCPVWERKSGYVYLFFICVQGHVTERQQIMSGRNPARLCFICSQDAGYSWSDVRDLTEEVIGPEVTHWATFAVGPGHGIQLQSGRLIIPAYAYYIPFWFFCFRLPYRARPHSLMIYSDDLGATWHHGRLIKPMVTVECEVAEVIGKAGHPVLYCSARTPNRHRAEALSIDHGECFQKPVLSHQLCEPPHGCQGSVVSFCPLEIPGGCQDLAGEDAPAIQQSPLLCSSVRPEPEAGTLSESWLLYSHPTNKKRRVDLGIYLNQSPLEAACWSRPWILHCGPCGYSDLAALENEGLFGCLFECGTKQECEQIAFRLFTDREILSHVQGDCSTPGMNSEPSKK
Method: (§1) A reaction system (0.2 ml) contained 50-100 nmol of sialic acid-bound saccharide substrate, 0.2 mg of bovine serum albumin, […] of sodium acetate buffer (pH 4.6), 0.2 mg of Triton X-100, and an enzyme fraction, and a substrate consisting mainly of bovine brain mixed gangliosides (Sigma, Type II) was used.
(§2) A reaction mixture having the aforementioned composition was incubated at 37° C. for 15-60 minutes, and the reaction was stopped by quick freezing. The released sialic acid was quantitated by the thiobarbituric acid method of Warren (Warren L., J. Biol. Chem. 234, 1971-1975, 1959) at 549 nm and 532 nm. In Steps 1, 2, and 7 explained below, the quantitation was performed by the same method after the reaction product was passed through an AGX-2 ion exchange mini column. The amount of the sialic acid (nmol) released per hour was defined as 1 unit. When a synthetic substrate, 4-methylumbelliferyl N-acetylneuraminic acid (4MU-NeuAc) was used as the sialic acid-bound saccharide substrate, Triton X-100 was excluded from the reaction system, and released 4-methylumbelliferone was quantitated by a fluorospectrophotometer.
The results of investigations about the activity of the enzyme of the present invention for various substrates are shown in Table 2. The numerical values represent relative activity when the activity for the GD3-ganglioside is defined to be 100.

[2] = biological target: T1, bovine membrane-bound sialidase; experiment: Inhibition, activation and stabilization of purified bovine membrane-bound sialidase; conditions: for Inhibition (%): 100 minus residual activity (%); for Inhibition of the sialidase: in words
Method: as §1, §2
The numerical values each represent 100 minus (residual activity (%) in the presence of inhibitor).

[3] = biological target: T1, bovine membrane-bound sialidase; experiment: as above; conditions: in words

Compound | Substrate specificity: whether the sialidase acts on the substrate [1] | Hydrolysis activity (%) [1] [%] | other results
GM2-ganglioside | does not substantially act on | 3 | –
GM3-ganglioside | acts on | 62 | –
Triton X-100 | – | – | Sialidase activity in the presence of surface active agent ([2]; 0.1 to 0.2% of Triton X-100): highly active
O[C@H](CS)[C@H](O)CS (racemic) [dithiothreitol] | – | – | Stabilization of the sialidase [3]: stabilized
Orosomucoid: glycoprotein substrate | does not substantially act on | 2 | –
Fetuin: glycoprotein substrate | does not substantially act on | 2 | –
[Cl][Cu][Cl] [CuCl2] | – | – | Inhibition (%) ([2]; inhibitor 1 mM): 95%
GD3-ganglioside | acts on | 100 | –
CC(=O)N[C@H]1[C@H]([C@H](O)[C@H](O)CO)O[C@@](O[C@H]2[C@@H](O)[C@@H](CO)O[C@@H](O[C@H]3[C@H](O)[C@@H](O)C(O)O[C@@H]3CO)[C@@H]2O)(C(=O)O)C[C@@H]1O (stereo partly drawn) [α2-3 syalyllactose, α2-3 sialyllactose] | did not act on | 11 | Substrate specificity: whether the sialidase acts on the substrate ([1]; listed as α2-3 sialyllactose): weakly acts on
GD1a-ganglioside | acts on | 56 | –
CC(=O)N[C@H]1[C@H]([C@H](O)[C@H](O)CO)OC(Oc2ccc3c(C)cc(=O)oc3c2)(C(=O)O)C[C@@H]1O (some centres unmarked) [4-MUNeuAc, 4-methylumbelliferyl N-acetylneuraminic acid] | weakly acts on | 25 | –
OCC(O)CO [glycerol] | – | – | Stabilization of the sialidase [3]: stabilized
[Cu+2] [Cu^2+] | – | – | Inhibition of the sialidase [2]: strongly inhibited
GM1-ganglioside | does not substantially act on | 1 | –
O=C(O)c1cc[c]([Hg][OH])cc1 [4-Hydroxy mercury benzoate] | – | – | Inhibition of the sialidase [2]: strongly inhibited; Inhibition (%) ([2]; inhibitor 50 μM): 92%
CC(=O)N[C@H]1[C@H]([C@H](O)[C@H](O)CO)OC(C(=O)O)=C[C@@H]1O [2-deoxy-2,3-dehydro-N-acetylneuraminic acid] | – | – | Inhibition of the sialidase [2]: weakly inhibited; Inhibition (%) ([2]; inhibitor 0.2 mM): 45%; Stabilization of the sialidase [3]: stabilized
